Data reported in patent publication US4753953A, “Pyridonecarboxylic acid derivatives and antibacterial pharmaceutical compositions thereof” (priority 1985, dated 1988).
In brackets after ≈: the same amount, converted by molar mass.

Assays:
Assay in all cases: MIC, in vitro antibacterial activity (standard strains)
[1] = test system: Pseudomonas aeruginosa V-1; format: cell-based; conditions: Pseudomonas aeruginosa, V1; 10^6 cells/ml; Gram -; read-out: MIC
[2] = test system: K. pneumoniae 1-220S; format: cell-based, Klebsiella pneumoniae; conditions: Klebsiella pneumoniae, 1220S; 10^6 cells/ml; Gram -; read-out: MIC
[3] = test system: Klebsiella pneumoniae KY(GN)6445; format: cell-based; conditions: Klebsiella pneumoniae; 10^6 cells/ml; Gram -; read-out: MIC
[4] = test system: B. vulgatus KYA 29327; format: cell-based; conditions: Phocaeicola vulgatus, KYA29327; 10^6 cells/ml; Gram -; read-out: MIC
[5] = test system: Peptostreptococcus anaerobius KYA 27337; format: cell-based; conditions: Peptostreptococcus anaerobius, KYA27337; 10^6 cells/ml; Gram +; read-out: MIC
[6] = test system: Citrobacter freundii IID 976; format: cell-based; conditions: Citrobacter freundii, IID976; 10^6 cells/ml; Gram -; read-out: MIC
[7] = test system: S. pneumoniae IID 552; format: cell-based; conditions: Streptococcus pneumoniae, IID552; 10^6 cells/ml; Gram +; read-out: MIC
[8] = test system: E. faecalis IID 682; format: cell-based; conditions: Enterococcus faecalis, IID682; 10^6 cells/ml; Gram +; read-out: MIC
[9] = test system: Clostridium difficile I-E; format: cell-based; conditions: Clostridioides difficile; 10^6 cells/ml; Gram +
[10] = test system: S. aureus IID 670 (Terajima); format: cell-based, Staphylococcus aureus; conditions: Staphylococcus aureus, IID670; 10^6 cells/ml; Gram +; read-out: MIC
[11] = test system: Fusobacterium mortiferum 4249; format: cell-based; conditions: Fusobacterium mortiferum, 4249; 10^6 cells/ml; Gram -; read-out: MIC
[12] = test system: Veillonella parvula KYA 10790; format: cell-based; conditions: Veillonella parvula, KYA10790; 10^6 cells/ml; Gram -; read-out: MIC
[13] = test system: B. distasonis 8503; format: cell-based; conditions: Parabacteroides distasonis, 8503; 10^6 cells/ml; Gram -; read-out: MIC
[14] = test system: S. epidermidis IID 866; format: cell-based; conditions: Staphylococcus epidermidis, IID866; 10^6 cells/ml; Gram +; read-out: MIC
[15] = test system: Proteus vulgaris IFO 3167; format: cell-based; conditions: Proteus vulgaris, IFO3167; 10^6 cells/ml; Gram -; read-out: MIC
[16] = test system: P. maltophilia GIFU 2491; format: cell-based; conditions: Stenotrophomonas maltophilia, GIFU2491; 10^6 cells/ml; Gram -; read-out: MIC
[17] = test system: P. mirabilis IID 994; format: cell-based; conditions: Proteus mirabilis, IID994; 10^6 cells/ml; Gram -; read-out: MIC
[18] = test system: C. ramosum; format: cell-based; conditions: Thomasclavelia ramosa; 10^6 cells/ml; Gram +; read-out: MIC
[19] = test system: Escherichia coli NIHJ JC-2; format: cell-based; conditions: Escherichia coli, NIHJJC2; 10^6 cells/ml; Gram -; read-out: MIC
[20] = test system: S. aureus Smith; format: cell-based, Staphylococcus aureus; conditions: Staphylococcus aureus; 10^6 cells/ml; Gram +; read-out: MIC
[21] = test system: Bacillus subtilis PCI 219; format: cell-based; conditions: Bacillus subtilis, PCI219; 10^6 cells/ml; Gram +; read-out: MIC
[22] = test system: Salmonella enteritidis IID 604; format: cell-based; conditions: Salmonella enterica; 10^6 cells/ml; Gram -; read-out: MIC
[23] = test system: E. coli ATCC 10536; format: cell-based, Escherichia coli; conditions: Escherichia coli, ATCC10536; 10^6 cells/ml; Gram -; read-out: MIC
[24] = test system: B. thetaiotaomicron (0661); format: cell-based; conditions: Bacteroides thetaiotaomicron; 10^6 cells/ml; Gram -; read-out: MIC
[25] = test system: Streptococcus pyogenes (S-8); format: cell-based; conditions: Streptococcus pyogenes; 10^6 cells/ml; Gram +; read-out: MIC
[26] = test system: F. varium KYA 8501; format: cell-based; conditions: Fusobacterium varium, KYA8501; 10^6 cells/ml; Gram -; read-out: MIC
[27] = test system: Morganella morganii IID 602; format: cell-based; conditions: Morganella morganii, IID602; 10^6 cells/ml; Gram -; read-out: MIC
[28] = test system: S. pyogenes IID 692; format: cell-based, Streptococcus pyogenes; conditions: Streptococcus pyogenes, IID692; 10^6 cells/ml; Gram +; read-out: MIC
[29] = test system: P. aeruginosa IID 1210; format: cell-based, Pseudomonas aeruginosa; conditions: Pseudomonas aeruginosa, IID1210; 10^6 cells/ml; Gram -; read-out: MIC
[30] = test system: Bacteroides fragilis GM 7000; format: cell-based; conditions: Bacteroides fragilis, GM7000; 10^6 cells/ml; Gram -; read-out: MIC
[31] = test system: Pst. micros UPI 5464-1; format: cell-based; conditions: Parvimonas micra, UPI54641; 10^6 cells/ml; Gram +; read-out: MIC
[32] = test system: B. fragilis 25285; format: cell-based, Bacteroides fragilis; conditions: Bacteroides fragilis, 25285; 10^6 cells/ml; Gram -; read-out: MIC

Structure (SMILES)	MIC [1]	MIC [2]	MIC [3]	MIC [4]	MIC [5]	MIC [6]	MIC [7]	MIC [8]	MIC [9]	MIC [10]	MIC [11]	MIC [12]	MIC [13]	MIC [14]	MIC [15]	MIC [16]	MIC [17]	MIC [18]	MIC [19]	MIC [20]	other results
CCn1cc(C(=O)O)c(=O)c2cc(F)c(N3C[C@@H](N)[C@@H](C)C3)c(F)c21 (relative stereo) [Example 22, 7-(cis-3-Amino-4-methyl-1-pyrrolidinyl)-1-ethyl-6,8-difluoro-1,4-dihydro-4-oxo-3-quinolinecarboxylic acid]	0.39 µg/mL (≈ 1.11 µM)	0.1 µg/mL (≈ 0.285 µM)	0.05 µg/mL (≈ 0.142 µM)	3.13 µg/mL (≈ 8.91 µM)	3.13 µg/mL (≈ 8.91 µM)	0.05 µg/mL (≈ 0.142 µM)	0.78 µg/mL (≈ 2.22 µM)	0.78 µg/mL (≈ 2.22 µM)	6.25 µg/mL	0.2 µg/mL (≈ 0.569 µM)	1.56 µg/mL (≈ 4.44 µM)	0.78 µg/mL (≈ 2.22 µM)	3.13 µg/mL (≈ 8.91 µM)	0.2 µg/mL (≈ 0.569 µM)	0.05 µg/mL (≈ 0.142 µM)	0.78 µg/mL (≈ 2.22 µM)	0.1 µg/mL (≈ 0.285 µM)	6.25 µg/mL (≈ 17.8 µM)	0.05 µg/mL (≈ 0.142 µM)	0.2 µg/mL (≈ 0.569 µM)	MIC [21]: 0.05 µg/mL (≈ 0.142 µM); MIC [22]: 0.1 µg/mL (≈ 0.285 µM); MIC [23]: 0.05 µg/mL (≈ 0.142 µM); MIC [24]: 3.13 µg/mL (≈ 8.91 µM); MIC [25]: 0.78 µg/mL (≈ 2.22 µM); MIC [26]: 6.25 µg/mL (≈ 17.8 µM); MIC [27]: 0.2 µg/mL (≈ 0.569 µM); MIC [28]: 0.78 µg/mL (≈ 2.22 µM); MIC [29]: 6.25 µg/mL (≈ 17.8 µM); MIC [30]: 3.13 µg/mL (≈ 8.91 µM); MIC [31]: 0.78 µg/mL (≈ 2.22 µM); MIC [32]: 1.56 µg/mL (≈ 4.44 µM)
C[C@H]1CN(c2cc3c(cc2F)c(=O)c(C(=O)O)cn3C2CC2)C[C@H]1N (relative stereo) [Example 33, 7-(cis-3-Amino-4-methyl-1-pyrrolidinyl)-1-cyclopropyl-6-fluoro-1,4-dihydro-4-oxo-3-quinolinecarboxylic acid]	0.2 µg/mL (≈ 0.579 µM)	0.05 µg/mL (≈ 0.145 µM)	0.05 µg/mL (≈ 0.145 µM)	6.25 µg/mL (≈ 18.1 µM)	1.56 µg/mL (≈ 4.52 µM)	0.05 µg/mL (≈ 0.145 µM)	0.39 µg/mL (≈ 1.13 µM)	0.39 µg/mL (≈ 1.13 µM)	6.25 µg/mL	0.1 µg/mL (≈ 0.29 µM)	1.56 µg/mL (≈ 4.52 µM)	0.39 µg/mL (≈ 1.13 µM)	6.25 µg/mL (≈ 18.1 µM)	0.1 µg/mL (≈ 0.29 µM)	0.05 µg/mL (≈ 0.145 µM)	0.39 µg/mL (≈ 1.13 µM)	0.05 µg/mL (≈ 0.145 µM)	6.25 µg/mL (≈ 18.1 µM)	0.05 µg/mL (≈ 0.145 µM)	0.1 µg/mL (≈ 0.29 µM)	MIC [21]: 0.05 µg/mL (≈ 0.145 µM); MIC [22]: 0.05 µg/mL (≈ 0.145 µM); MIC [23]: 0.05 µg/mL (≈ 0.145 µM); MIC [24]: 6.25 µg/mL (≈ 18.1 µM); MIC [25]: 0.78 µg/mL (≈ 2.26 µM); MIC [26]: 12.5 µg/mL (≈ 36.2 µM); MIC [27]: 0.05 µg/mL (≈ 0.145 µM); MIC [28]: 0.39 µg/mL (≈ 1.13 µM); MIC [29]: 1.56 µg/mL (≈ 4.52 µM); MIC [30]: 1.56 µg/mL (≈ 4.52 µM); MIC [31]: 0.39 µg/mL (≈ 1.13 µM); MIC [32]: 1.56 µg/mL (≈ 4.52 µM)
CCNCC1CN(c2c(F)cc3c(=O)c(C(=O)O)cn(C4CC4)c3c2F)CC1C (centres unmarked) [Example 15, 1-Cyclopropyl-7-(3-ethylaminomethyl-4-methyl-1-pyrrolidinyl)-6,8-difluoro-1,4-dihydro-4-oxo-3-quinolinecarboxylic acid]	0.78 µg/mL (≈ 1.92 µM)	0.2 µg/mL (≈ 0.493 µM)	0.05 µg/mL (≈ 0.123 µM)	0.78 µg/mL (≈ 1.92 µM)	0.2 µg/mL (≈ 0.493 µM)	0.1 µg/mL (≈ 0.247 µM)	0.1 µg/mL (≈ 0.247 µM)	0.1 µg/mL (≈ 0.247 µM)	0.78 µg/mL	0.05 µg/mL (≈ 0.123 µM)	0.39 µg/mL (≈ 0.962 µM)	0.78 µg/mL (≈ 1.92 µM)	3.13 µg/mL (≈ 7.72 µM)	0.05 µg/mL (≈ 0.123 µM)	0.1 µg/mL (≈ 0.247 µM)	0.39 µg/mL (≈ 0.962 µM)	0.1 µg/mL (≈ 0.247 µM)	0.78 µg/mL (≈ 1.92 µM)	0.05 µg/mL (≈ 0.123 µM)	0.05 µg/mL (≈ 0.123 µM)	MIC [21]: 0.025 µg/mL (≈ 0.0617 µM); MIC [22]: 0.2 µg/mL (≈ 0.493 µM); MIC [23]: 0.05 µg/mL (≈ 0.123 µM); MIC [24]: 1.56 µg/mL (≈ 3.85 µM); MIC [25]: 0.1 µg/mL (≈ 0.247 µM); MIC [26]: 1.56 µg/mL (≈ 3.85 µM); MIC [27]: 0.2 µg/mL (≈ 0.493 µM); MIC [28]: 0.1 µg/mL (≈ 0.247 µM); MIC [29]: 3.13 µg/mL (≈ 7.72 µM); MIC [30]: 0.78 µg/mL (≈ 1.92 µM); MIC [31]: 0.78 µg/mL (≈ 1.92 µM); MIC [32]: 0.39 µg/mL (≈ 0.962 µM)
CCNCC1CN(c2c(F)cc3c(=O)c(C(=O)O)cn(C4CC4)c3c2Cl)CC1C (centres unmarked) [Example 14, 8-Chloro-1-cyclopropyl-7-(3-ethylaminomethyl-4-methyl-1-pyrrolidinyl)-6-fluoro-1,4-dihydro-4-oxo-3-quinolinecarboxylic acid]	0.78 µg/mL (≈ 1.85 µM)	0.2 µg/mL (≈ 0.474 µM)	0.05 µg/mL (≈ 0.119 µM)	≤ 0.05 µg/mL	≤ 0.05 µg/mL	0.1 µg/mL (≈ 0.237 µM)	0.05 µg/mL (≈ 0.119 µM)	0.05 µg/mL (≈ 0.119 µM)	0.1 µg/mL	0.0125 µg/mL (≈ 0.0296 µM)	0.2 µg/mL (≈ 0.474 µM)	0.39 µg/mL (≈ 0.924 µM)	0.39 µg/mL (≈ 0.924 µM)	0.0125 µg/mL (≈ 0.0296 µM)	0.05 µg/mL (≈ 0.119 µM)	0.39 µg/mL (≈ 0.924 µM)	0.1 µg/mL (≈ 0.237 µM)	0.2 µg/mL (≈ 0.474 µM)	0.025 µg/mL (≈ 0.0593 µM)	0.0125 µg/mL (≈ 0.0296 µM)	MIC [21]: 0.0125 µg/mL (≈ 0.0296 µM); MIC [22]: 0.2 µg/mL (≈ 0.474 µM); MIC [23]: 0.025 µg/mL (≈ 0.0593 µM); MIC [24]: 0.2 µg/mL (≈ 0.474 µM); MIC [25]: 0.05 µg/mL (≈ 0.119 µM); MIC [26]: 1.56 µg/mL (≈ 3.7 µM); MIC [27]: 0.2 µg/mL (≈ 0.474 µM); MIC [28]: 0.05 µg/mL (≈ 0.119 µM); MIC [29]: 3.13 µg/mL (≈ 7.42 µM); MIC [30]: 0.1 µg/mL (≈ 0.237 µM); MIC [31]: 0.39 µg/mL (≈ 0.924 µM); MIC [32]: 0.05 µg/mL (≈ 0.119 µM)
